# According to patent publication US8722910B2, “Diyne compositions” (Evolva AG, priority 2009, dated 2014):
# Like-named read-outs stand apart in the source and are kept apart here.
# Legend:
# [1] = system: C. albicans, Fluconazole, Voriconazole, Itraconazole and/or Caspofungin resistant isolates; assay: Susceptibility of resistant clinical isolates (MIC, broth dilution); format: cell-based; settings: Candida albicans; C. albicans resistant (n = 20): isolates resistant to Fluconazole, Itraconazole and Caspofungin; read-out: MIC90
# H. capsulatum = assay: microbe, parasite or virus in culture; format: cell-based; settings: Histoplasma capsulatum, 120 h
# C. albicans [2] = assay: Fatty acid competition (antagonism) in 96-well plates; settings: 48 h
# A. versicolor = assay: Susceptibility of clinical Aspergillus isolates (MIC); format: cell-based; settings: Aspergillus versicolor; A. versicolor (n = 3); CLSI M38-A2; 50% growth inhibition; 24 h; read-out: MIC50
# Protocol: (§1) The efficacy of compound IV″ was investigated on 563 clinical isolates of 33 human fungal pathogens. […] For species with n≧10, the MIC90 (MIC, minimal inhibitory concentration) is given as ng/ml. For species with n≦10, the MIC range is given as ng/ml. 24 h and 48 h reads are indicated (Table 1).
# (§2) Susceptibilities were determined according to the CLSI reference method M38-A2.
# A. fumigatus = assay: as above; format: cell-based; settings: Aspergillus fumigatus; A. fumigatus (n = 20); CLSI M38-A2; 50% growth inhibition; 24 h; read-out: MIC50
# Protocol: as §1, §2
# A. terreus = assay: as above; format: cell-based; settings: Aspergillus terreus; A. terreus (n = 5); CLSI M38-A2; 50% growth inhibition; 24 h; read-out: MIC50
# Protocol: as §1, §2
# A. nidulans = assay: as above; format: cell-based; settings: A. nidulans (n = 3), CLSI M38-A2, 50% growth inhibition, 24 h, read-out: MIC50
# Protocol: as §1, §2
# A. niger = assay: as above; format: cell-based; settings: A. niger (n = 6), CLSI M38-A2, 50% growth inhibition, 24 h, read-out: MIC50
# Protocol: as §1, §2
# A. flavus = assay: as above; format: cell-based; settings: Aspergillus flavus; A. flavus (n = 2); CLSI M38-A2; 50% growth inhibition; 24 h; read-out: MIC50
# Protocol: as §1, §2
# C. krusei = assay: Susceptibility of clinical isolates (MIC, broth dilution); format: cell-based; settings: Pichia kudriavzevii; C. krusei (n = 27); M27-A3, 24 hrs; read at 50% inhibition (potassium salt, Voriconazole), 100% (Amphotericin), MEC (Caspofungin); read-out: MIC90
# Protocol: as §1
# (§3) The in vitro efficacy of antifungal compounds is determined in susceptibility assays, which are indicative for the spectrum and potency of a compound. Susceptibilities are reported as minimal inhibitory concentrations (MIC, as ng/ml or μg/ml) required to inhibit growth to a defined degree compared to the drug free control. The MIC90 defines the MIC required to inhibit growth for ≧90% of the strains of a population tested.
# (§4) The MIC90 was calculated for the indicated species.
# C. lusitaniae = assay: as above; format: cell-based; settings: Clavispora lusitaniae; C. lusitaniae (n = 24); M27-A3, 24 hrs; read at 50% inhibition (potassium salt, Voriconazole), 100% (Amphotericin), MEC (Caspofungin); read-out: MIC90
# Protocol: as §1, §3, §4
# C. albicans [3] = assay: as above; format: cell-based; settings: Candida albicans; C. albicans (n = 20); M27-A3, 24 hrs; read at 50% inhibition (potassium salt, Voriconazole), 100% (Amphotericin), MEC (Caspofungin); read-out: MIC90
# Protocol: as §1, §3, §4
# C. parapsilosis = assay: as above; format: cell-based; settings: Lodderomyces parapsilosis; C. parapsilosis (n = 37); M27-A3, 24 hrs; read at 50% inhibition (potassium salt, Voriconazole), 100% (Amphotericin), MEC (Caspofungin); read-out: MIC90
# Protocol: as §1, §3, §4
# C. tropicalis = assay: as above; format: cell-based; settings: Candida tropicalis; C. tropicalis (n = 35); M27-A3, 24 hrs; read at 50% inhibition (potassium salt, Voriconazole), 100% (Amphotericin), MEC (Caspofungin); read-out: MIC90
# Protocol: as §1, §3, §4
# C. glabrata = assay: as above; format: cell-based; settings: Nakaseomyces glabratus; C. glabrata (n = 25); M27-A3, 24 hrs; read at 50% inhibition (potassium salt, Voriconazole), 100% (Amphotericin), MEC (Caspofungin); read-out: MIC90
# Protocol: as §1, §3, §4
# C. dubliniensis = assay: as above; format: cell-based; settings: Candida dubliniensis; C. dubliniensis (n = 25); M27-A3, 24 hrs; read at 50% inhibition (potassium salt, Voriconazole), 100% (Amphotericin), MEC (Caspofungin); read-out: MIC90
# Protocol: as §1, §3, §4
# Coccidioides spp. = assay: microbe, parasite or virus in culture; format: cell-based; settings: Coccidioides, 48 h
# Candida albicans = assay: In vitro fungicidal activity vs. Candida albicans; settings: Candida albicans
# B. dermatitidis = assay: Susceptibility of clinical dimorphic fungi (MIC); format: cell-based; settings: Blastomyces dermatitidis; B. dermatitidis (n = 30); CLSI M38-A2; 50% growth reduction; MIC read at 96 h
# [4] = system: C. glabrata, Fluconazole, Voriconazole, Itraconazole and/or Caspofungin resistant isolates; assay: Susceptibility of resistant clinical isolates (MIC, broth dilution); format: cell-based; settings: Nakaseomyces glabratus; C. glabrata resistant (n = 21): isolates resistant to Fluconazole, Itraconazole, Voriconazole and Caspofungin; read-out: MIC90
# Protocol: as §1, §4
structure (smiles),measurement,setting,value
C[C@@H]1[C@H](O)[C@@H](C)/C=C/C=C/C=C/C=C/C=C/C=C/C=C/[C@H](O[C@@H]2O[C@H](C)[C@@H](O)[C@H](N)[C@@H]2O)C[C@@H]2O[C@](O)(C[C@@H](O)C[C@@H](O)[C@H](O)CC[C@@H](O)C[C@@H](O)CC(=O)O[C@H]1C)C[C@H](O)[C@H]2C(=O)O [Amphotericin B],MIC90,[1],0.5 µg/mL
same,MIC90,H. capsulatum,0.125 µg/mL
same,effect of oleic acid / stearic acid on susceptibility,C. albicans [2],oleic acid did not decrease the susceptibility
same,MIC50,A. versicolor,2 µg/mL
same,MIC50,A. fumigatus,0.5 µg/mL
same,MIC50,A. terreus,2 µg/mL
same,MIC50,A. nidulans,2 µg/mL
same,MIC50,A. niger,1 µg/mL
same,MIC50,A. flavus,2 µg/mL
same,MIC90,C. krusei,4 µg/mL
same,MIC90,C. lusitaniae,1 µg/mL
same,MIC90,C. albicans [3],0.5 µg/mL
same,MIC90,C. parapsilosis,0.5 µg/mL
same,MIC90,C. tropicalis,1 µg/mL
same,MIC90,C. glabrata,2 µg/mL
same,MIC90,C. dubliniensis,1 µg/mL
same,MIC90,Coccidioides spp.,0.5 µg/mL
same,Fungicidal Concentration,Candida albicans,800 ng/mL
same,MIC90,"Candida albicans; 24 h, read-out: MIC90 24 h",0.2 µg/mL
same,MIC90,"Candida albicans; 48 h, read-out: MIC90 48 h",0.8 µg/mL
same,MIC90,B. dermatitidis,0.25 µg/mL
same,MIC90,[4],2 µg/mL
